Earlier results as cited in patent US9163134B2, “Highly functional additive for polymerization and method for preparing vinyl chloride seeds using the same” (LG CHEM, LTD., priority 2011, dated 2015).
Converted amounts (≈) assume the structure as drawn.

Row | SMILES | Solubility in water [µg/mL] | Solubility in water (mg/L)
1 | CCCCCCCCCCO [C10H21—OH] | 37 (≈ 0.234 mM) | –
2 | CCO [C2H5—OH] | – | ∞
3 | CCCCCCO [C6H13—OH] | 6260 (≈ 61.3 mM) | –
4 | CCCCCCCCO [C8H17—OH] | 540 (≈ 4.15 mM) | –
